# Measured values taken from patent US20200331855A1, “CO-CRYSTAL OF TOCOPHEROL AND PROLINE AND PREPARATION METHOD THEREOF” (priority 2017, published 2020).
# Experiments:
# [1] = Acceleration test (40° C./75% relative humidity), synthetic tocopherol vs co-crystal, total tocopherol content; type: physicochemical
# Procedure: The content was determined by HPLC, the content was calculated by the external standard method, and the content is calculated based on the total tocopherol content. Both the initial tocopherol contents in the synthetic tocopherol itself and in the co-crystals were set at 100%.
# [2] = High temperature test (60° C.), content by HPLC and appearance; type: physicochemical
# Procedure: (§1) The content was determined by HPLC, and the content was calculated by the external standard method.
# [3] = Strong light irradiation test (5500 Lux), content by HPLC and appearance; type: physicochemical; details: 25° C.
# Procedure: as §1
# [4] = Accelerated test stability (40° C./75% relative humidity), D-α-tocopherol vs co-crystal; type: physicochemical
# Procedure: as §1
# [5] = Long-term test stability (25° C./60% relative humidity); type: physicochemical; details: Month 0, initial content set at 100%
# Procedure: as §1
# [6] = 200 g lean beef, 69 mg co-crystal or same equivalent, stored at 2-4° C. for 8 days
# Procedure: A. the lean beef was cut into pieces with a size of about 2×2 cm, 200 grams for each.
# All samples were placed in a metal dish, numbered and stored at 2-4° C. for 8 days.
compound,measurement,setting,value
"Cc1c(C)c2c(c(C)c1O)CCC(C)(CCCC(C)CCCC(C)CCCC(C)C)O2 (racemic) [synthetic tocopherol, DL-α-tocopherol]",content,"[1]; Month 0, initial set at 100%",100.0%
same,content,[1]; Month 1,94.1%
Cc1c(C)c2c(c(C)c1O)CC[C@@](C)(CCC[C@H](C)CCC[C@H](C)CCCC(C)C)O2 [D-α-tocopherol],content,"[2]; Day 0, HPLC, initial content set at 100%",100%
same,content,"[2]; Day 5, % of initial content",96.7%
same,content,"[2]; Day 10, % of initial content",89.4%
same,content,"[2]; Day 20, % of initial content",78.7%
same,content,"[2]; Day 30, % of initial content",77.3%
same,content,"[3]; near UV 90 μW/cm^2, Day 0, initial content set at 100%",100%
same,content,"[3]; near UV 90 μW/cm^2, Day 5",97.8%
same,content,"[3]; near UV 90 μW/cm^2, Day 10",91.8%
same,content,"[3]; near UV 90 μW/cm^2, Day 20",88.5%
same,content,"[4]; Month 0, initial content set at 100%",100%
same,content,[4]; Month 1,98.0%
same,content,[4]; Month 2,99.1%
same,content,[5],100.0%
co-crystal of D-α-tocopherol and L-proline,flavor (rancidity) of beef,[6],"except for the sample added with the co-crystal of D-α-tocopherol and L-proline, both of the other two samples have rancidity"
same,meat color of beef,[6],can delay the darkening and greening of beef
